Columns and labels:
P2X7R = molecular target: T1, P2X7R (Mus musculus, UniProt Q9Z1M0); assay: Fura-2 calcium microfluorimetry, BzATP-evoked calcium entry; type: cell-based; conditions: cultured hippocampal neurons; BzATP 100 µM; BBG 1 µM
T1 construct: endogenous in cells; host or cells: primary hippocampal neurons from E17 mouse embryos
T1 sequence (Q9Z1M0 1-595): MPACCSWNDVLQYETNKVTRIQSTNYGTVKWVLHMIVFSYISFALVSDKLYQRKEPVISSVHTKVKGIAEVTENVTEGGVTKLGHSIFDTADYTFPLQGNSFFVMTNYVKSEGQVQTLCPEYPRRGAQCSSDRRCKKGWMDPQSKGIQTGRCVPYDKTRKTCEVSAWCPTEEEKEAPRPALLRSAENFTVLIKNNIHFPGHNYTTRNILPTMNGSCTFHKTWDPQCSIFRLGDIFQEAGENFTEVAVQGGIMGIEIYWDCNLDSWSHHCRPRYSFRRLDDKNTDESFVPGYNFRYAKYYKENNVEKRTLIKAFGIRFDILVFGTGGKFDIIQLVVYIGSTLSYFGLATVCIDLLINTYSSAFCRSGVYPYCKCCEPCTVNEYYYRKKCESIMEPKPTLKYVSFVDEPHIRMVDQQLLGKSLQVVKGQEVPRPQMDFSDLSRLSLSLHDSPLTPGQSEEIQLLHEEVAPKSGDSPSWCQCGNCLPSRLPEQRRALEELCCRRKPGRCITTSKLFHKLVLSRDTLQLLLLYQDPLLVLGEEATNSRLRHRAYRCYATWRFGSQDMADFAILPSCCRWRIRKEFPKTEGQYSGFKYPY
Experimental: Hippocampal neurons were prepared as described previously (Diaz-Hernandez et al., 2008). Briefly, hippocampi were obtained from E17 mouse embryos and, after dissection and washing three times in Ca^2+/Mg^2+-free HBSS, tissue was digested in the same solution with 0.25% trypsin for 15 min at 37°C. Hippocampi were then washed three times in Ca^2+/Mg^2+-free HBSS and dissociated with a firepolished Pasteur pipette. Cells were counted, resuspended in plating medium (MEM, 10% fetal bovine serum, 0.6% glucose) and plated at a density of 5,000 cells/cm^2 on poly-L-lysine coated coverslips (1 mg/ml). After plating, neurons were cultured for 24-72 h in neuronal culture medium (Neurobasal, B-27, glutamax-I). For biochemical experiments, hippocampal neurons were plated on polylysine-coated (1 mg/ml) 60-mm plates at a density of 200,000 cells/cm^2, and cultured for 72 h in neuronal culture medium. AraC was added at a final concentration of 5 µM after 2 days in culture.
Calcium microfluorimetric analysis in single neurons was carried out according to (Diaz-Hernandez et al., 2001). […]
Neurons were visualized using a Plan Fluor x40 S/0.5-1.3 oil lens. […] The background was subtracted at each wavelength and the 340 / 380 ratio was calculated. The data are represented as the normalized F340/F380 fluorescence ratio, which increases as [Ca^2+]i increases.

IL-1β = assay: Western blot of hippocampal IL-1β after SE; type: in vivo, mice; conditions: ipsilateral hippocampus, 24 h after KA
Experimental: Adult male C57BL/6 mice (20-25 g) were obtained from Harlan UK (Blackthorn, UK). Mice were first anesthetized using isoflurane (3-5%) and maintained normothermic by means of a feedback-controlled heat blanket (Harvard Apparatus Ltd, Kent, UK). Mice were next placed in a stereotaxic frame and three partial craniectomies performed to affix cortical skull-mounted EEG electrodes (Bilaney Consultants Ltd, Sevenoaks, UK). EEG was recorded using a Grass Comet XL digital EEG (Medivent Ltd, Lucan, Ireland). A guide cannula was affixed (coordinates from Bregma: AP = 0.94; L = 2.85 mm) and the assembly fixed in place with dental cement. Anesthesia was then discontinued and freely moving mice were placed inside a clear perspex recording chamber. […]
Western blotting was performed as previously described (Engel et al., 2010). […] Protein concentration was determined and then 20 or 50 µg samples boiled in gel-loading buffer and separated by 10, 12 or 15% sodium dodecyl sulphate-polyacrylamide gel electrophoresis. […] Gel band image densities were captured using a Fuji-film LAS-3000 and analyzed using Alpha-EaseFC4.0 software as described (Engel et al., 2010).

**Q.** CCOc1ccc(Nc2ccc(C(=C3C=CC(=[N+](CC)Cc4cccc(S(=O)(=O)[O-])c4)C=C3C)c3ccc(N(CC)Cc4cccc(S(=O)(=O)O)c4)cc3C)cc2)cc1 [BBG, Brilliant Blue G] was tested. Which “P2X7R-gated (BzATP-induced) calcium entry” value (P2X7R) did it give?
**A.** The value was “effective to block”.

**Q.** And the “IL-1β induction after SE” value (IL-1β)?
**A.** The value was “significantly reduced”.
